From PubChem BioAssay (NCI)
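Results reflect a 48-hour exposure of cells in 96-well plates to compound at five concentrations. At the GI50, growth is halved. TGI: total growth inhibition.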

Experiments:
Test in all cases: NCI anticancer screen, dose series, 48 h; in the data active means GI50 below about 0.43 µM; inactive means the rest
SNB-75 CNS = tested on: SNB-75 CNS
SR leukemia = tested on: SR leukemia
HS 578T breast = tested on: HS 578T breast
HL-60(TB) leukemia = tested on: HL-60(TB) leukemia
SK-MEL-2 melanoma = tested on: SK-MEL-2 melanoma
SNB-19 CNS = tested on: SNB-19 CNS
HOP-62 NSCLC = tested on: HOP-62 NSCLC
SW-620 colon = tested on: SW-620 colon
NCI-H226 lung = tested on: NCI-H226 lung
NCI-H460 lung = tested on: NCI-H460 lung
RXF 393 renal = tested on: RXF 393 renal
MCF7 breast = tested on: MCF7 breast
HCT-15 colon = tested on: HCT-15 colon
OVCAR-4 ovarian = tested on: OVCAR-4 ovarian
SK-MEL-5 melanoma = tested on: SK-MEL-5 melanoma
ACHN renal = tested on: ACHN renal
NCI/ADR-RES ovarian = tested on: NCI/ADR-RES ovarian
SF-295 CNS = tested on: SF-295 CNS
SK-MEL-28 melanoma = tested on: SK-MEL-28 melanoma
HCT-116 colon = tested on: HCT-116 colon
T-47D breast = tested on: T-47D breast
EKVX NSCLC = tested on: EKVX NSCLC
OVCAR-8 ovarian = tested on: OVCAR-8 ovarian
HOP-92 NSCLC = tested on: HOP-92 NSCLC
NCI-H23 lung = tested on: NCI-H23 lung
TK-10 renal = tested on: TK-10 renal
LOX IMVI melanoma = tested on: LOX IMVI melanoma
A498 renal = tested on: A498 renal
UACC-257 melanoma = tested on: UACC-257 melanoma
CCRF-CEM leukemia = tested on: CCRF-CEM leukemia
M14 melanoma = tested on: M14 melanoma
SF-539 CNS = tested on: SF-539 CNS
HT29 colon = tested on: HT29 colon
SK-OV-3 ovarian = tested on: SK-OV-3 ovarian
SN12C renal = tested on: SN12C renal
MALME-3M melanoma = tested on: MALME-3M melanoma
COLO 205 colon = tested on: COLO 205 colon
MDA-MB-435 = tested on: MDA-MB-435
HCC-2998 colon = tested on: HCC-2998 colon
A549 NSCLC = tested on: A549 NSCLC
UO-31 renal = tested on: UO-31 renal
IGROV1 ovarian = tested on: IGROV1 ovarian
786-0 renal = tested on: 786-0 renal
DU-145 prostate = tested on: DU-145 prostate
MDA-MB-231 breast = tested on: MDA-MB-231 breast
KM12 colon = tested on: KM12 colon
U251 CNS = tested on: U251 CNS
SF-268 CNS = tested on: SF-268 CNS
UACC-62 melanoma = tested on: UACC-62 melanoma
OVCAR-3 ovarian = tested on: OVCAR-3 ovarian
CAKI-1 renal = tested on: CAKI-1 renal
MOLT-4 leukemia = tested on: MOLT-4 leukemia
NCI-H522 lung = tested on: NCI-H522 lung
K-562 leukemia = tested on: K-562 leukemia
PC-3 prostate = tested on: PC-3 prostate
OVCAR-5 ovarian = tested on: OVCAR-5 ovarian
RPMI-8226 leukemia = tested on: RPMI-8226 leukemia

[2H]C([2H])([2H])Oc1cc(F)ccc1/C=C/C(=O)/C=C(/C=C/c1ccc(F)cc1OC([2H])([2H])[2H])OB(F)F
> 100 µM: TGI (SNB-75 CNS) | TGI (SR leukemia) | TGI (HS 578T breast) | TGI (SK-MEL-2 melanoma) | TGI (SNB-19 CNS) | TGI (HOP-62 NSCLC)
inactive: GI50 (SNB-75 CNS) 2.39 µM | GI50 (SR leukemia) 2.67 µM | GI50 (HS 578T breast) 5.67 µM | GI50 (HL-60(TB) leukemia) 1.68 µM | GI50 (SK-MEL-2 melanoma) 2.99 µM | GI50 (SNB-19 CNS) 3.47 µM | GI50 (HOP-62 NSCLC) 3.11 µM
6.67 µM: TGI (HL-60(TB) leukemia)

C[C@H]1[C@H](C)CC[C@]2(C(=O)OCCCC[P+](c3ccccc3)(c3ccccc3)c3ccccc3)CC[C@]3(C)C(=CC[C@@H]4[C@@]5(C)CC[C@H](OC(=O)C(Cl)Cl)C(C)(C)[C@@H]5CC[C@]43C)[C@H]12
active: GI50 (SW-620 colon) 0.349 µM | GI50 (NCI-H226 lung) 0.354 µM | GI50 (NCI-H460 lung) 0.283 µM
1.82 µM: TGI (NCI-H226 lung)
1.29 µM: TGI (SW-620 colon)
0.975 µM: TGI (NCI-H460 lung)

COc1cc(C2NCCC(c3ccccc3)(c3ccccc3)N2)cc(OC)c1OC (configuration not stated)
32.1 µM: TGI (SK-MEL-5 melanoma)
66.2 µM: TGI (UO-31 renal)
85.8 µM: TGI (MCF7 breast)
33.9 µM: TGI (UACC-257 melanoma)
> 100 µM: TGI (RXF 393 renal) | TGI (HCT-15 colon) | TGI (OVCAR-4 ovarian) | TGI (SW-620 colon) | TGI (ACHN renal) | TGI (NCI/ADR-RES ovarian) | TGI (SNB-75 CNS) | TGI (HCT-116 colon) | TGI (T-47D breast) | TGI (EKVX NSCLC) | TGI (OVCAR-8 ovarian) | TGI (NCI-H460 lung) | TGI (NCI-H23 lung) | TGI (TK-10 renal) | TGI (SR leukemia) | TGI (CCRF-CEM leukemia) | TGI (SK-OV-3 ovarian) | TGI (SN12C renal) | TGI (MDA-MB-435) | TGI (A549 NSCLC) | TGI (IGROV1 ovarian) | TGI (786-0 renal) | TGI (DU-145 prostate) | TGI (MDA-MB-231 breast) | TGI (KM12 colon) | TGI (SNB-19 CNS) | TGI (HOP-62 NSCLC) | TGI (U251 CNS) | TGI (SF-268 CNS) | TGI (UACC-62 melanoma)
27.9 µM: TGI (HOP-92 NSCLC)
88.6 µM: TGI (A498 renal)
43.8 µM: TGI (NCI-H226 lung)
42.4 µM: TGI (COLO 205 colon)
34 µM: TGI (MALME-3M melanoma)
29.7 µM: TGI (SF-539 CNS)
42.7 µM: TGI (HCC-2998 colon)
90.2 µM: TGI (HL-60(TB) leukemia)
35.6 µM: TGI (SK-MEL-28 melanoma)
79.5 µM: TGI (HS 578T breast)
35.8 µM: TGI (SF-295 CNS)
79.4 µM: TGI (HT29 colon)
27.2 µM: TGI (M14 melanoma)
47.7 µM: TGI (LOX IMVI melanoma)

C=C1c2c(C)nn(-c3ccc(OC)cc3)c2N(C)C23C[C@@H]1C1(C)c4c(C)nn(-c5ccc(OC)cc5)c4N(C)C(C)(C[C@H]12)C3 (some centres not stated)
> 100 µM: TGI (OVCAR-3 ovarian) | TGI (MCF7 breast) | TGI (HCT-15 colon) | TGI (SW-620 colon) | TGI (NCI/ADR-RES ovarian) | TGI (SK-MEL-28 melanoma) | TGI (CAKI-1 renal) | TGI (T-47D breast) | TGI (MOLT-4 leukemia) | TGI (SR leukemia) | TGI (UACC-257 melanoma) | TGI (CCRF-CEM leukemia) | TGI (M14 melanoma) | TGI (HT29 colon) | TGI (HL-60(TB) leukemia) | TGI (SN12C renal) | TGI (MALME-3M melanoma) | TGI (K-562 leukemia) | TGI (MDA-MB-435) | TGI (HCC-2998 colon) | TGI (UO-31 renal) | TGI (IGROV1 ovarian) | TGI (DU-145 prostate) | TGI (OVCAR-5 ovarian) | TGI (KM12 colon) | TGI (UACC-62 melanoma)
12.8 µM: TGI (HCT-116 colon)
55.8 µM: TGI (SNB-19 CNS)
39.3 µM: TGI (OVCAR-8 ovarian)
11.8 µM: TGI (TK-10 renal)
6.08 µM: TGI (RXF 393 renal)
inactive: GI50 (RXF 393 renal) 1.9 µM | GI50 (OVCAR-3 ovarian) 3.27 µM | GI50 (MCF7 breast) 2.69 µM | GI50 (HCT-15 colon) 3.11 µM | GI50 (OVCAR-4 ovarian) 3.56 µM | GI50 (SW-620 colon) 3.63 µM | GI50 (ACHN renal) 3.3 µM | GI50 (NCI-H226 lung) 4.44 µM | GI50 (NCI/ADR-RES ovarian) 4.04 µM | GI50 (SK-MEL-28 melanoma) 5.86 µM | GI50 (CAKI-1 renal) 2.67 µM | GI50 (HCT-116 colon) 2.82 µM | GI50 (T-47D breast) 1.81 µM | GI50 (OVCAR-8 ovarian) 3.4 µM | GI50 (MOLT-4 leukemia) 2.6 µM | GI50 (HOP-92 NSCLC) 1.18 µM | GI50 (NCI-H23 lung) 3.86 µM | GI50 (TK-10 renal) 3.63 µM | GI50 (SR leukemia) 3.16 µM | GI50 (NCI-H522 lung) 2.77 µM | GI50 (A498 renal) 2.47 µM | GI50 (UACC-257 melanoma) 2.68 µM | GI50 (HS 578T breast) 6.23 µM | GI50 (CCRF-CEM leukemia) 3.41 µM | GI50 (M14 melanoma) 3.88 µM | GI50 (SF-539 CNS) 3.16 µM | GI50 (HT29 colon) 3.24 µM | GI50 (HL-60(TB) leukemia) 2.54 µM | GI50 (SK-OV-3 ovarian) 3.39 µM | GI50 (SN12C renal) 3.65 µM | GI50 (SK-MEL-2 melanoma) 3.23 µM | GI50 (MALME-3M melanoma) 3.24 µM | GI50 (COLO 205 colon) 2.2 µM | GI50 (K-562 leukemia) 3.6 µM | GI50 (MDA-MB-435) 3.4 µM | GI50 (HCC-2998 colon) 4.07 µM | GI50 (A549 NSCLC) 2.69 µM | GI50 (UO-31 renal) 2.61 µM | GI50 (IGROV1 ovarian) 7.54 µM | GI50 (PC-3 prostate) 1.75 µM | GI50 (786-0 renal) 4.23 µM | GI50 (DU-145 prostate) 4.38 µM | GI50 (OVCAR-5 ovarian) 11.3 µM | GI50 (MDA-MB-231 breast) 3.11 µM | GI50 (KM12 colon) 3.75 µM | GI50 (SNB-19 CNS) 4.34 µM | GI50 (HOP-62 NSCLC) 4.28 µM | GI50 (U251 CNS) 2.67 µM | GI50 (SF-268 CNS) 3.63 µM | GI50 (UACC-62 melanoma) 2.86 µM
5.11 µM: TGI (COLO 205 colon)
5.4 µM: TGI (HOP-92 NSCLC)
77.4 µM: TGI (HS 578T breast)
15.7 µM: TGI (MDA-MB-231 breast)
19 µM: TGI (ACHN renal)
16.4 µM: TGI (A498 renal)
9.94 µM: TGI (SK-MEL-2 melanoma)
16.8 µM: TGI (SF-539 CNS)
11 µM: TGI (NCI-H522 lung)
63 µM: TGI (NCI-H226 lung)
16.2 µM: TGI (SK-OV-3 ovarian)
18.9 µM: TGI (HOP-62 NSCLC)
7.77 µM: TGI (PC-3 prostate)
54.6 µM: TGI (OVCAR-4 ovarian)
70.5 µM: TGI (SF-268 CNS)
55.7 µM: TGI (A549 NSCLC)
53.6 µM: TGI (NCI-H23 lung)
19.7 µM: TGI (786-0 renal)

C#C[C@]1(O)CC[C@H]2[C@@H]3CC=C4c5nc(Nc6ncccn6)sc5CC[C@]4(C)[C@H]3CC[C@@]21C
2.11 µM: TGI (RPMI-8226 leukemia)
4.14 µM: TGI (HS 578T breast)
inactive: GI50 (RXF 393 renal) 0.451 µM | GI50 (EKVX NSCLC) 2.99 µM | GI50 (HS 578T breast) 1.25 µM | GI50 (SNB-19 CNS) 2.77 µM
> 100 µM: TGI (EKVX NSCLC) | TGI (SNB-19 CNS)
1.69 µM: TGI (RXF 393 renal)
active: GI50 (RPMI-8226 leukemia) 0.421 µM
